Data as given in patent US10988478B1, “Pyrazolo[1,5a]pyrimidine derivatives as IRAK4 modulators” (Genentech, Inc., priority 2015, dated 2021).

Target: human IRAK4 (Homo sapiens (Human), UniProt Q9NWZ3)
Assay: IRAK4 kinase inhibition, Transcreener fluorescence polarization ADP assay
Format: biochemical
Conditions: recombinant full-length His6-IRAK4; 125 uM ATP; 90 min; Ki computed using ATP Km 642 uM
Experimental: Compounds were assayed for inhibition of human IRAK4 and IRAK1 catalytic activity using recombinant enzyme produced from insect cells. Full-length IRAK4 protein, carrying an N-terminal His6-Tag, was obtained from Life Technologies (Carlsbad, Calif., USA). The IRAK1 construct was produced internally and was comprised of IRAK1 residues Arg194 to Ser712, preceded by an NH2-terminal His6 tag and the coding sequence for glutathione-S-transferase.

Sequence of human IRAK4 (Q9NWZ3 whole entry): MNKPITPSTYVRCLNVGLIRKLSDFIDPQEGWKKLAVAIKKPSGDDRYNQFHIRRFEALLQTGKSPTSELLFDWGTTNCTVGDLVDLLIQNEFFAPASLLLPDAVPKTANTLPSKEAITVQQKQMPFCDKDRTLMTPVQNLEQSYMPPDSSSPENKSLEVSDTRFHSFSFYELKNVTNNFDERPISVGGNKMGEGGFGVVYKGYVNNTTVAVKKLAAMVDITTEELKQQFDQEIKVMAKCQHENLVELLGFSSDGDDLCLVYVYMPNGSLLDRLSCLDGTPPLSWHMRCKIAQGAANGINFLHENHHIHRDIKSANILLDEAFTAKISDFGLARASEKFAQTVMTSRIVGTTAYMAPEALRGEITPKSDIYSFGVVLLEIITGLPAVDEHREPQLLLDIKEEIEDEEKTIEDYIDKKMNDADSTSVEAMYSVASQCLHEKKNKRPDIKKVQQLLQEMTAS

Row | Ki [nM] | SMILES
1 | 2 | NC(=O)CN1CCN(c2cc3c(cc2NC(=O)c2cnn4cccnc24)CN(C2CCOCC2)C3=O)CC1 [Example 177, N-[6-[4-(2-amino-2-oxo-ethyl)piperazin-1-yl]-1-oxo-2-tetrahydropyran-4-yl-isoindolin-5-yl]pyrazolo[1,5-a]pyrimidine-3-carboxamide]
2 | 15 | COCCN1Cc2cc(NC(=O)c3cnn4cccnc34)c(N3CCOCC3)cc2C1=O [Example 178, N-[2-(2-methoxyethyl)-6-morpholino-1-oxo-isoindolin-5-yl]pyrazolo[1,5-a]pyrimidine-3-carboxamide]
3 | 31 | O=C(Nc1cc2c(cc1N1CCOCC1)C(=O)N(CCO)C2)c1cnn2cccnc12 [Example 179, N-[2-(2-hydroxyethyl)-6-morpholino-1-oxo-isoindolin-5-yl]pyrazolo[1,5-a]pyrimidine-3-carboxamide]
4 | 3.8 | CN1CCC(N2Cc3cc(NC(=O)c4cnn5cccnc45)c(N4CCOCC4)cc3C2=O)CC1 [Example 180, N-[2-(1-methyl-4-piperidyl)-6-morpholino-1-oxo-isoindolin-5-yl]pyrazolo[1,5-a]pyrimidine-3-carboxamide]
5 | 2 | O=C(Nc1cc2c(cc1N1CCOCC1)C(=O)N([C@H]1CC[C@H](O)CC1)C2)c1cnn2cccnc12 [Example 181, N-[2-(4-hydroxycyclohexyl)-6-morpholino-1-oxo-isoindolin-5-yl]pyrazolo[1,5-a]pyrimidine-3-carboxamide]
6 | 56 | CNC(=O)[C@H]1[C@@H]2CN(c3cc4c(cc3NC(=O)c3cnn5cccnc35)CC(C)(C)O4)C[C@@H]21 [Example 182, N-[2,2-dimethyl-6-[(1S,5R)-6-(methylcarbamoyl)-3-azabicyclo[3.1.0]hexan-3-yl]-3H-benzofuran-5-yl]pyrazolo[1,5-a]pyrimidine-3-carboxamide]
7 | 5.1 | CNC(=O)CC1CCN(c2cc3c(cc2NC(=O)c2cnn4cccnc24)CC(C)(C)O3)CC1 [Example 183, N-[2,2-dimethyl-6-[4-[2-(methylamino)-2-oxo-ethyl]-1-piperidyl]-3H-benzofuran-5-yl]pyrazolo[1,5-a]pyrimidine-3-carboxamide]
8 | 3.1 | CC1(C)Cc2cc(NC(=O)c3cnn4cccnc34)c(N3CCC(C)(C(N)=O)CC3)cc2O1 [Example 184, N-[6-(4-carbamoyl-4-methyl-1-piperidyl)-2,2-dimethyl-3H-benzofuran-5-yl]pyrazolo[1,5-a]pyrimidine-3-carboxamide]
9 | 5.8 | CC1(C)Cc2cc(NC(=O)c3cnn4cccnc34)c(N3CCCC(O)CC3)cc2O1 (stereo not shown) [Example 185, N-[6-(4-hydroxyazepan-1-yl)-2,2-dimethyl-3H-benzofuran-5-yl]pyrazolo[1,5-a]pyrimidine-3-carboxamide]
10 | 15 | CC1(C)Cc2cc(NC(=O)c3cnn4cccnc34)c(N3C[C@@H]4[C@H](C3)[C@H]4C(N)=O)cc2O1 [Example 186, N-[6-[(1S,5R)-6-carbamoyl-3-azabicyclo[3.1.0]hexan-3-yl]-2,2-dimethyl-3H-benzofuran-5-yl]pyrazolo[1,5-a]pyrimidine-3-carboxamide]
11 | 2 | CC1(C)Cc2cc(NC(=O)c3cnn4cccnc34)c(N3CCN(CC(N)=O)CC3)cc2O1 [Example 187, N-[6-[4-(2-amino-2-oxo-ethyl)piperazin-1-yl]-2,2-dimethyl-3H-benzofuran-5-yl]pyrazolo[1,5-a]pyrimidine-3-carboxamide]
12 | 84 | Cn1cncc1C1CCN(c2cc3c(cc2NC(=O)c2cnn4cccnc24)CC(C)(C)O3)C1 (stereo not shown) [Example 188, N-[2,2-dimethyl-6-[3-(3-methylimidazol-4-yl)pyrrolidin-1-yl]-3H-benzofuran-5-yl]pyrazolo[1,5-a]pyrimidine-3-carboxamide]
13 | 5.5 | CC1(C)Cc2cc(NC(=O)c3cnn4cccnc34)c(N3Cc4cccnc4C3)cc2O1 [Example 189, N-[6-(5,7-dihydropyrrolo[3,4-b]pyridin-6-yl)-2,2-dimethyl-3H-benzofuran-5-yl]pyrazolo[1,5-a]pyrimidine-3-carboxamide]
14 | 630 | CC1(C)Cc2cc(NC(=O)c3cnn4cccnc34)c(N3CCCC(c4ccn[nH]4)C3)cc2O1 (stereo not shown) [Example 190, N-[2,2-dimethyl-6-[3-(1H-pyrazol-5-yl)-1-piperidyl]-3H-benzofuran-5-yl]pyrazolo[1,5-a]pyrimidine-3-carboxamide]
15 | 27 | CC1(C)Cc2cc(NC(=O)c3cnn4cccnc34)c(N3CC4COCC4C3)cc2O1 (stereo not shown) [Example 191, N-[6-(1,3,3a,4,6,6a-hexahydrofuro[3,4-c]pyrrol-5-yl)-2,2-dimethyl-3H-benzofuran-5-yl]pyrazolo[1,5-a]pyrimidine-3-carboxamide]
16 | 44 | CC1(C)Cc2cc(NC(=O)c3cnn4cccnc34)c(N3CCC(c4cc[nH]n4)C3)cc2O1 (stereo not shown) [Example 192, N-[2,2-dimethyl-6-[3-(1H-pyrazol-3-yl)pyrrolidin-1-yl]-3H-benzofuran-5-yl]pyrazolo[1,5-a]pyrimidine-3-carboxamide]

Row | Ki [nM] | SMILES
17 | 100 | CC1(C)Cc2cc(NC(=O)c3cnn4cccnc34)c(N3CC4CC3CC4(F)F)cc2O1 (stereo not shown) [Example 193, N-[6-(5,5-difluoro-2-azabicyclo[2.2.1]heptan-2-yl)-2,2-dimethyl-3H-benzofuran-5-yl]pyrazolo[1,5-a]pyrimidine-3-carboxamide]
18 | 410 | CC1(C)Cc2cc(NC(=O)c3cnn4cccnc34)c(N3CC4(CCCOC4)C3)cc2O1 [Example 194, N-[2,2-dimethyl-6-(6-oxa-2-azaspiro[3.5]nonan-2-yl)-3H-benzofuran-5-yl]pyrazolo[1,5-a]pyrimidine-3-carboxamide]
19 | 20 | CC1(C)Cc2cc(NC(=O)c3cnn4cccnc34)c(N3CCC(C(F)(F)F)C3)cc2O1 (stereo not shown) [Example 195, N-[2,2-dimethyl-6-[3-(trifluoromethyl)pyrrolidin-1-yl]-3H-benzofuran-5-yl]pyrazolo[1,5-a]pyrimidine-3-carboxamide]
20 | 13 | CC1(C)Cc2cc(NC(=O)c3cnn4cccnc34)c(N3CCCC(F)(F)C3)cc2O1 [Example 196, N-(6-(3,3-difluoropiperidin-1-yl)-2,2-dimethyl-2,3-dihydrobenzofuran-5-yl)pyrazolo[1,5-a]pyrimidine-3-carboxamide]
21 | 33 | CC1(C)Cc2cc(NC(=O)c3cnn4cccnc34)c(N3C[C@@H]4CC(F)(F)C[C@@H]4C3)cc2O1 [Example 197, N-(6-((3aR,6aS)-5,5-difluorohexahydrocyclopenta[c]pyrrol-2(1H)-yl)-2,2-dimethyl-2,3-dihydrobenzofuran-5-yl)pyrazolo[1,5-a]pyrimidine-3-carboxamide]
22 | 140 | COCC1CN(c2cc3c(cc2NC(=O)c2cnn4cccnc24)CC(C)(C)O3)CCO1 (stereo not shown) [Example 198, N-(6-(2-(methoxymethyl)morpholino)-2,2-dimethyl-2,3-dihydrobenzofuran-5-yl)pyrazolo[1,5-a]pyrimidine-3-carboxamide]
23 | 170 | CC1(C)Cc2cc(NC(=O)c3cnn4cccnc34)c(N3CC4CC(F)(F)C4C3)cc2O1 (stereo not shown) [Example 199, N-(6-(6,6-difluoro-3-azabicyclo[3.2.0]heptan-3-yl)-2,2-dimethyl-2,3-dihydrobenzofuran-5-yl)pyrazolo[1,5-a]pyrimidine-3-carboxamide]
24 | 22 | CC1(C)Cc2cc(NC(=O)c3cnn4cccnc34)c(N3C[C@H]4CCC(F)(F)[C@H]4C3)cc2O1 [Example 200, N-(6-((3aR,6aS)-4,4-difluorohexahydrocyclopenta[c]pyrrol-2(1H)-yl)-2,2-dimethyl-2,3-dihydrobenzofuran-5-yl)pyrazolo[1,5-a]pyrimidine-3-carboxamide]
25 | 28 | CC1(C)Cc2cc(NC(=O)c3cnn4cccnc34)c(N3CCCC3CO)cc2O1 (stereo not shown) [Example 201, N-(6-(2-(hydroxymethyl)pyrrolidin-1-yl)-2,2-dimethyl-2,3-dihydrobenzofuran-5-yl)pyrazolo[1,5-a]pyrimidine-3-carboxamide]
26 | 690 | CC1(C)Cc2cc(NC(=O)c3cnn4cccnc34)c(N3CCCC(c4ncc[nH]4)C3)cc2O1 (stereo not shown) [Example 202, N-(6-(3-(1H-imidazol-2-yl)piperidin-1-yl)-2,2-dimethyl-2,3-dihydrobenzofuran-5-yl)pyrazolo[1,5-a]pyrimidine-3-carboxamide]
27 | 15 | CC1(C)Cc2cc(NC(=O)c3cnn4cccnc34)c(N3C[C@@H](F)[C@@H](F)C3)cc2O1 [Example 203, N-(6-((3R,4S)-3,4-difluoropyrrolidin-1-yl)-2,2-dimethyl-2,3-dihydrobenzofuran-5-yl)pyrazolo[1,5-a]pyrimidine-3-carboxamide]
28 | 730 | CC1(C)Cc2cc(NC(=O)c3cnn4cccnc34)c(N3CC4(CCC4(F)F)C3)cc2O1 [Example 204, N-(6-(5,5-difluoro-2-azaspiro[3.3]heptan-2-yl)-2,2-dimethyl-2,3-dihydrobenzofuran-5-yl)pyrazolo[1,5-a]pyrimidine-3-carboxamide]
29 | 86 | CN(Cc1ccc(C#N)cc1)c1cc2c(cc1NC(=O)c1cnn3cccnc13)CC(C)(C)O2 [Example 205, N-(6-((4-cyanobenzyl)(methyl)amino)-2,2-dimethyl-2,3-dihydrobenzofuran-5-yl)pyrazolo[1,5-a]pyrimidine-3-carboxamide]
30 | 3.4 | CC1(C)Cc2cc(NC(=O)c3cnn4cccnc34)c(N3CCC(n4ccnc4)CC3)cc2O1 [Example 206, N-(6-(4-(1H-imidazol-1-yl)piperidin-1-yl)-2,2-dimethyl-2,3-dihydrobenzofuran-5-yl)pyrazolo[1,5-a]pyrimidine-3-carboxamide]
31 | 17 | CC1(C)Cc2cc(NC(=O)c3cnn4cccnc34)c(N3CCCC(F)(F)CC3)cc2O1 [Example 207, N-(6-(4,4-difluoroazepan-1-yl)-2,2-dimethyl-2,3-dihydrobenzofuran-5-yl)pyrazolo[1,5-a]pyrimidine-3-carboxamide]
